Data: the OligoGym collection
Several values for one entry are separate records, joined by “and”; a condition that tells them apart may be missing. Equal values may be shown once. HELM strings list units from the 5' end as sugar, base in round brackets, then linkage (d deoxyribose, r ribose, m 2'-O-methyl, p phosphodiester). Strings are as the collection lists them, not checked against the first reports. ss, as = sense and antisense strand; [lna] = locked nucleic acid (LNA); [una] = unlocked nucleic acid; [hna] = hexitol nucleic acid; [s4r] = 4'-thioribose; [fl2r] = 2'-fluoro

Details: siRNA
Note: test system not given here.

For “RNA1{[s4r](A)p.[s4r](A)p.[s4r](A)p.[s4r](C)p.r(A)p.r(U)p.r(G)p.r(C)p.r(A)p.r(G)p.r(A)p.r(A)p.r(A)p.r(A)p.r(U)p.[s4r](G)p.[s4r](C)p.[s4r](U)p.[s4r](G)p.r(T)p.r(T)}|RNA2{[s4r](C)p.[s4r](A)p.r(G)p.r(C)p.r(A)p.r(U)p.r(U)p.r(U)p.r(U)p.r(C)p.r(U)p.r(G)p.r(C)p.r(A)p.r(U)p.r(G)p.r(U)p.[s4r](U)p.[s4r](U)p.r(T)p.r(T)}$$$RNA1{StrandType:ss}|RNA2{StrandType:as}$”, which target mRNA knockdown is on record?
The target mRNA knockdown was 66.3%.

With “RNA1{[lna](G)p.r(C)p.r(A)p.r(G)p.r(C)p.r(A)p.r(C)p.r(G)p.r(A)p.r(C)p.r(U)p.r(U)p.r(C)p.r(U)p.r(U)p.r(C)p.r(A)p.r(A)p.r(G)p.r(U)p.r(U)}|RNA2{r(C)p.r(U)p.r(U)p.r(G)p.r(A)p.r(A)p.r(G)p.r(A)p.r(A)p.r(G)p.r(U)p.r(C)p.r(G)p.r(U)p.r(G)p.r(C)p.r(U)p.r(G)p.r(C)p.r(U)p.r(U)}$$$RNA1{StrandType:ss}|RNA2{StrandType:as}$” as the substance, how does the target mRNA knockdown read?
The target mRNA knockdown was 73.2%.

Which target mRNA knockdown does the source give for “RNA1{r(G)p.r(U)p.r(A)p.r(U)p.r(G)p.r(A)p.r(C)p.r(C)p.r(G)p.r(A)p.r(C)p.r(U)p.r(A)p.r(C)p.r(G)p.r(C)p.r(G)p.r(U)p.r(A)p.r(T)p.r(T)}|RNA2{r(U)p.r(U)p.[una](C)p.r(A)p.r(G)p.r(U)p.r(G)p.r(U)p.r(G)p.r(A)p.r(U)p.r(G)p.r(A)p.r(C)p.r(A)p.r(C)p.r(U)p.r(U)p.r(G)p.r(T)p.r(T)}$$$RNA1{StrandType:ss}|RNA2{StrandType:as}$” here?
Its target mRNA knockdown is 45% and 50%.

For “RNA1{r(C)p.r(G)p.r(A)p.r(G)p.r(U)p.r(G)p.r(U)p.r(C)p.r(U)p.r(A)p.r(A)p.r(C)p.r(G)p.r(G)p.r(G)p.r(A)p.r(G)p.r(C)p.r(C)p.r(T)p.r(T)}|RNA2{r(G)p.r(G)p.r(C)p.r(U)p.r(C)p.r(C)p.r(C)p.r(G)p.r(U)p.m(U)p.r(A)p.r(G)p.r(A)p.r(C)p.r(A)p.r(C)p.r(U)p.r(C)p.r(G)p.r(T)p.r(T)}$$$RNA1{StrandType:ss}|RNA2{StrandType:as}$”, which target mRNA knockdown is on record?
Its target mRNA knockdown is 68%.

With “RNA1{r(A)p.r(U)p.r(C)p.r(U)p.r(G)p.r(A)p.r(A)p.r(G)p.r(A)p.r(A)p.r(G)p.r(G)p.r(A)p.r(G)p.r(A)p.r(A)p.r(A)p.r(A)p.r(A)p.r(T)p.r(T)}|RNA2{r(U)p.r(U)p.r(U)p.r(U)p.r(U)p.r(C)p.r(U)p.r(C)p.r(C)p.r(U)p.r(U)p.r(C)p.r(U)p.r(U)p.r(C)p.r(A)p.r(G)p.r(A)p.r(U)p.[lna](T)p.[lna](T)}$$$RNA1{StrandType:ss}|RNA2{StrandType:as}$” as the substance, how does the target mRNA knockdown read?
Its target mRNA knockdown is 90%.

For “RNA1{r(G)p.r(C)p.r(U)p.r(U)p.m(U)p.m(A)p.r(A)p.r(G)p.r(G)p.r(A)p.r(A)p.r(C)p.m(U)p.r(G)p.r(G)p.r(A)p.r(A)p.r(G)p.r(G)p.r(T)p.r(T)}|RNA2{r(C)p.r(C)p.r(U)p.r(U)p.r(C)p.m(C)p.r(A)p.r(G)p.r(U)p.r(U)p.r(C)p.r(C)p.r(U)p.m(U)p.m(A)p.r(A)p.r(A)p.r(G)p.r(C)p.r(T)p.r(T)}$$$RNA1{StrandType:ss}|RNA2{StrandType:as}$”, which target mRNA knockdown is on record?
Its target mRNA knockdown is 72%.

With “RNA1{[lna](G)p.r(C)p.r(U)p.r(G)p.r(A)p.r(C)p.r(C)p.r(C)p.r(U)p.r(G)p.r(A)p.r(A)p.r(G)p.r(U)p.r(U)p.r(C)p.r(A)p.r(U)p.r(C)p.[lna](T)p.[lna](T)}|RNA2{r(G)p.r(A)p.r(U)p.r(G)p.r(A)p.r(A)p.r(C)p.r(U)p.r(U)p.r(C)p.r(A)p.r(G)p.r(G)p.r(G)p.r(U)p.r(C)p.r(A)p.r(G)p.r(C)p.[lna](T)p.[lna](T)}$$$RNA1{StrandType:ss}|RNA2{StrandType:as}$” as the substance, how does the target mRNA knockdown read?
The target mRNA knockdown was 61%.

For “RNA1{r(G)p.r(G)p.r(A)p.m(C)p.m(U)p.r(A)p.m(C)p.m(U)p.r(A)p.r(A)p.m(C)p.m(C)p.m(U)p.m(C)p.m(C)p.r(A)p.r(G)p.m(U)p.m(U)p.r(T)p.r(T)}|RNA2{r(A)p.r(A)p.m(C)p.m(U)p.r(G)p.r(G)p.r(A)p.r(G)p.r(G)p.m(U)p.m(U)p.r(A)p.r(G)p.m(U)p.r(A)p.r(G)p.m(U)p.m(C)p.m(C)p.r(T)p.r(T)}$$$RNA1{StrandType:ss}|RNA2{StrandType:as}$”, which target mRNA knockdown is on record?
Its target mRNA knockdown is 7%.

For “RNA1{m(A)p.r(G)p.m(G)p.r(A)p.m(C)p.r(G)p.m(G)p.r(U)p.m(A)p.r(C)p.m(U)p.r(U)p.m(U)p.r(C)p.m(G)p.r(A)p.m(A)p.r(A)p.m(G)p.r(T)p.r(T)}|RNA2{r(C)p.m(U)p.m(U)p.m(U)p.r(C)p.r(G)p.r(A)p.r(A)p.r(A)p.r(G)p.m(U)p.r(A)p.r(C)p.r(C)p.r(G)p.m(U)p.r(C)p.r(C)p.m(U)p.r(T)p.r(T)}$$$RNA1{StrandType:ss}|RNA2{StrandType:as}$”, which target mRNA knockdown is on record?
The target mRNA knockdown was 17%.

For “RNA1{r(C)p.m(U)p.r(A)p.r(C)p.r(C)p.r(U)p.r(U)p.r(C)p.r(U)p.r(C)p.r(C)p.r(U)p.r(C)p.r(U)p.r(U)p.r(C)p.r(U)p.r(C)p.r(C)p.r(T)p.r(T)}|RNA2{r(G)p.r(G)p.r(A)p.r(G)p.r(A)p.r(A)p.r(G)p.r(A)p.r(G)p.r(G)p.r(A)p.r(G)p.r(A)p.r(A)p.r(G)p.r(G)p.m(U)p.r(A)p.r(G)p.r(T)p.r(T)}$$$RNA1{StrandType:ss}|RNA2{StrandType:as}$”, which target mRNA knockdown is on record?
The target mRNA knockdown was 69%.

For “RNA1{r(C)p.r(G)p.r(G)p.r(A)p.r(U)p.r(C)p.m(U)p.r(A)p.r(C)p.r(A)p.r(C)p.r(C)p.r(U)p.r(U)p.r(C)p.m(A)p.r(A)p.r(G)p.r(A)p.r(T)p.r(T)}|RNA2{r(U)p.r(C)p.r(U)p.m(U)p.r(G)p.r(A)p.r(A)p.r(G)p.r(G)p.m(U)p.r(G)p.m(U)p.r(A)p.r(G)p.r(A)p.r(U)p.r(C)p.r(C)p.r(G)p.r(T)p.r(T)}$$$RNA1{StrandType:ss}|RNA2{StrandType:as}$”, which target mRNA knockdown is on record?
Its target mRNA knockdown is 42%.

Which target mRNA knockdown does the source give for “RNA1{[hna](G)p.[hna](A)p.[hna](C)p.r(G)p.r(U)p.r(A)p.r(A)p.r(A)p.r(C)p.r(G)p.r(G)p.r(C)p.r(C)p.r(A)p.r(C)p.r(A)p.r(A)p.[hna](G)p.[hna](U)p.r(U)p.d(T)}|RNA2{r(A)p.r(C)p.r(U)p.r(U)p.r(G)p.r(U)p.r(G)p.r(G)p.r(C)p.r(C)p.r(G)p.r(U)p.r(U)p.r(U)p.r(A)p.r(C)p.r(G)p.r(U)p.[lna](C)p.[lna](G)p.r(C)}$$$RNA1{StrandType:ss}|RNA2{StrandType:as}$” here?
Its target mRNA knockdown is 84.7%.

Which target mRNA knockdown does the source give for “RNA1{r(G)p.[fl2r](C)p.r(A)p.r(G)p.[fl2r](C)p.r(A)p.[fl2r](C)p.r(G)p.r(A)p.[fl2r](C)p.[fl2r](U)p.[fl2r](U)p.[fl2r](C)p.[fl2r](U)p.[fl2r](U)p.[fl2r](C)p.r(A)p.r(A)p.r(G)p.r(T)p.r(T)}|RNA2{[fl2r](C)p.[fl2r](U)p.[fl2r](U)p.r(G)p.r(A)p.r(A)p.r(G)p.r(A)p.r(A)p.r(G)p.[fl2r](U)p.[fl2r](C)p.r(G)p.[fl2r](U)p.r(G)p.[fl2r](C)p.[fl2r](U)p.r(G)p.[fl2r](C)p.r(T)p.r(T)}$$$RNA1{StrandType:ss}|RNA2{StrandType:as}$” here?
The target mRNA knockdown was 83%.

Which target mRNA knockdown does the source give for “RNA1{r(G)p.r(G)p.r(A)p.r(G)p.r(C)p.m(U)p.r(A)p.r(G)p.r(A)p.r(C)p.r(G)p.r(G)p.r(G)p.m(U)p.r(A)p.r(C)p.r(G)p.r(A)p.r(G)p.r(T)p.r(T)}|RNA2{r(C)p.r(U)p.r(C)p.r(G)p.m(U)p.r(A)p.r(C)p.r(C)p.r(C)p.r(G)p.r(U)p.r(C)p.m(U)p.r(A)p.r(G)p.r(C)p.r(U)p.r(C)p.r(C)p.r(T)p.r(T)}$$$RNA1{StrandType:ss}|RNA2{StrandType:as}$” here?
Its target mRNA knockdown is 82%.

For “RNA1{r(A)p.r(C)p.r(C)p.r(U)p.m(U)p.r(A)p.r(A)p.r(G)p.r(G)p.r(A)p.r(C)p.r(C)p.r(A)p.r(C)p.r(C)p.r(G)p.r(G)p.r(A)p.r(U)p.r(T)p.r(T)}|RNA2{r(A)p.r(U)p.r(C)p.r(C)p.r(G)p.r(G)p.r(U)p.r(G)p.r(G)p.r(U)p.r(C)p.r(C)p.r(U)p.m(U)p.r(A)p.r(A)p.r(G)p.r(G)p.r(U)p.r(T)p.r(T)}$$$RNA1{StrandType:ss}|RNA2{StrandType:as}$”, which target mRNA knockdown is on record?
The target mRNA knockdown was 74%.

Which target mRNA knockdown does the source give for “RNA1{r(G)p.r(U)p.r(C)p.m(U)p.r(A)p.r(U)p.r(G)p.r(C)p.r(C)p.r(A)p.r(A)p.r(G)p.r(A)p.r(A)p.r(G)p.r(G)p.r(G)p.r(A)p.r(G)p.r(T)p.r(T)}|RNA2{r(C)p.r(U)p.r(C)p.r(C)p.r(C)p.r(U)p.r(U)p.r(C)p.r(U)p.r(U)p.r(G)p.r(G)p.r(C)p.r(A)p.m(U)p.r(A)p.r(G)p.r(A)p.r(C)p.r(T)p.r(T)}$$$RNA1{StrandType:ss}|RNA2{StrandType:as}$” here?
The target mRNA knockdown was 76%.

Which target mRNA knockdown does the source give for “RNA1{r(G)p.r(A)p.r(A)p.r(A)p.r(C)p.r(U)p.r(G)p.r(G)p.r(U)p.r(A)p.r(C)p.r(U)p.r(U)p.r(U)p.r(C)p.r(C)p.r(C)p.r(C)p.r(C)p.r(T)p.r(T)}|RNA2{r(G)p.r(G)p.r(G)p.r(G)p.r(G)p.r(A)p.r(A)p.r(A)p.r(G)p.[fl2r](U)p.r(A)p.r(C)p.r(C)p.r(A)p.r(G)p.[fl2r](U)p.[fl2r](U)p.[fl2r](U)p.r(C)p.r(T)p.r(T)}$$$RNA1{StrandType:ss}|RNA2{StrandType:as}$” here?
The target mRNA knockdown was 26%.

Which target mRNA knockdown does the source give for “RNA1{r(C)p.r(C)p.r(U)p.r(C)p.r(C)p.r(C)p.r(C)p.r(A)p.r(U)p.r(C)p.r(C)p.r(C)p.r(C)p.r(U)p.r(U)p.r(U)p.r(U)p.r(A)p.r(A)p.r(T)p.r(T)}|RNA2{r(U)p.r(U)p.m(A)p.r(A)p.r(A)p.r(A)p.r(G)p.r(G)p.r(G)p.r(G)p.r(A)p.r(U)p.r(G)p.r(G)p.r(G)p.r(G)p.r(A)p.r(G)p.r(G)p.r(T)p.r(T)}$$$RNA1{StrandType:ss}|RNA2{StrandType:as}$” here?
Its target mRNA knockdown is 80%.

For “RNA1{r(C)p.r(U)p.r(G)p.r(G)p.r(U)p.r(A)p.r(A)p.r(A)p.r(G)p.r(C)p.r(A)p.r(U)p.r(U)p.r(C)p.r(A)p.r(G)p.r(U)p.r(A)p.r(U)p.d(T)p.d(T)}|RNA2{r(A)p.r(U)p.r(A)p.r(C)p.r(U)p.r(G)p.r(A)p.r(A)p.r(U)p.r(G)p.r(C)p.r(U)p.r(U)p.r(U)p.r(A)p.r(C)p.r(C)p.r(A)p.r(G)p.d(T)p.d(T)}$$$RNA1{StrandType:ss}|RNA2{StrandType:as}$”, which target mRNA knockdown is on record?
The target mRNA knockdown was 82%.

For “RNA1{r(C)p.[fl2r](U)p.r(G)p.r(A)p.r(C)p.r(C)p.r(G)p.r(G)p.r(A)p.r(A)p.[fl2r](G)p.r(C)p.r(G)p.r(C)p.r(U)p.[fl2r](U)p.r(A)p.r(A)p.r(A)p.r(T)p.r(T)}|RNA2{r(U)p.r(U)p.[fl2r](U)p.r(A)p.r(A)p.r(G)p.r(C)p.r(G)p.r(C)p.r(U)p.r(U)p.r(C)p.r(C)p.r(G)p.r(G)p.r(U)p.[fl2r](C)p.r(A)p.r(G)p.r(T)p.r(T)}$$$RNA1{StrandType:ss}|RNA2{StrandType:as}$”, which target mRNA knockdown is on record?
The target mRNA knockdown was 85%.
